Measured values: patent US20170119775A1, “TREATMENT OF COGNITIVE DISORDERS” (Algiax Pharmaceuticals GmbH, priority 2014, published 2017)

Assays:
[1] = Plasma Tmax after oral administration; assay type: in vivo
male Wistar rats [2] = experiment: Xylazine/ketamine-induced anesthesia test (surrogate measure of emesis); assay type: in vivo, rat; details: for relative recovery time (duration of anesthesia, vehicle set at 100%), mean: 3.5 h before induction of anesthesia
Description: The mechanism of the emetic response associated with PDE4-Is is thought to be a consequence of the inhibition of PDE4 in non-target tissues. It is believed that PDE4-Is produce a pharmacological response analogous to that of presynaptic α2-adrenoreceptor inhibition by elevating intracellular levels of cAMP in noradrenergic neurons. Therefore, by removing an inhibitory mechanism, PDE4-Is are thought to modulate the release of mediators including 5-HT, substance P and noradrenaline involved in the onset of the emetic reflex mediated at emetic brainstem centers. PDE4-Is have the ability to reverse α2-adrenoreceptor agonist-mediated anesthesia with xylazine/ketamine in rodents (Robichaud et al., 2002). This effect is very likely mediated at the locus coeruleus in the brain stem. This confirms the postulate that PDE4-Is have effects similar to those of a2-adrenoreceptor antagonists. Since rodents are non-vomiting species, the ability of a PDE4-I to shorten a2-adrenergic receptor-mediated xylazine/ketamine anesthesia is therefore used as well-established surrogate measure of emesis in rodents.
Twenty four 3-4 month old male Wistar rats (Charles River, Sulzfeld, Germany) were used (average body weight at the beginning of the study: 365 g). All animals were housed individually in standard green line Tecniplast IVC cages on sawdust bedding. The animals were housed on a reversed 12/12-h light/dark cycle (lights on from 19:00 h to 07:00 h) and had free access to food and water. The rats were housed and tested in the same room. A radio, playing softly, provided background noise in the room. All testing was performed between 09:00 h and 18:00 h.
AP-61 was dissolved in 0.5% methylcellulose (MC) and 2% Tween 80. […] (injection volume was 2 ml/kg). […] The emetic properties of the PDE4-I rolipram are already assessed (Bruno et al., 2011). In the current study rolipram was used as a reference compound for AP-61 and applied in at dosages of 0.1 and 0.3 mg/kg. Rolipram was dissolved in 0.5% MC and 2% tween 80 (injection volume 2 ml/kg, route of administration was p.o.). For the induction of anesthesia, 10 mg/kg ketamine (Eurovet Animal Health, The Netherlands) and 10 mg/kg xylazine (CEVA Santé Animale, The Netherlands) were used (both administered i.p.). All solutions were prepared daily.
Rats were anesthetized with a combination of xylazine and ketamine (both 10 mg/kg, i.p). Fifteen minutes after induction of the anesthesia, rats were treated with rolipram or vehicle (0.1 or 0.3 mg/kg, p.o.) and the animals were placed in a dorsal position. The restoration of the righting reflex, i.e. when the animal no longer remained on its back and turned itself spontaneously to the prone position, was used as an endpoint to determine the duration of anesthesia. Animals that were not anesthetized after 15 min were excluded from the analysis.
AP-61 reached peak concentration at 5 h after oral administration. Because of this, induction of anesthesia with the combination of xylazine and ketamine was done 3.5 h after oral administration of AP-61. Animals were then placed in a dorsal position. The time delay to the recovery of the righting reflex was used as an endpoint to measure the duration of the anesthesia. Again, animals that were not anesthetized after 15 min were excluded from the analysis.
The restoration of the righting reflex, i.e. when the animal no longer remained on its back and turned itself spontaneously to the prone position (standing on four paws), was used as an endpoint to determine the duration to the anesthesia. Each test day a vehicle group was included. Outliers were removed from the analysis (Dixon-test). Each daily vehicle was set at 100% while the other treatment conditions of that day were expressed as a percentage of the vehicle. The following formula was used:
Duration of anesthesia after drug treatment (min)×(100/mean of duration of anesthesia of vehicle treatment (min)) […]

male Wistar rats [3] = experiment: Object recognition task (ORT), natural forgetting, 24-h interval; assay type: in vivo, rat; details: 24 h delay, mean (SEM)
Protocol: In example 1, the compound AP-61 a 7-(4-tert butyl-cyclohexyl)-imidazotriazione (a compound of the formula II) was tested in the ORT in 3-4 month old male Wistar rats using a 24-h interval between the trials to induce natural forgetting.
One group of twenty four 3-4 month old male Wistar rats (Charles River, Sulzfeld, Germany) were used (average body weight at the beginning of the study: 365 g). All animals were housed individually in standard green line Tecniplast IVC cages on sawdust bedding. The animals were housed on a reversed 12/12-h light/dark cycle (lights on from 19:00 h to 07:00 h) and had free access to food and water. The rats were housed and tested in the same room. A radio, playing softly, provided background noise in the room. All testing was performed between 09:00 h and 18:00 h.
AP-61 was dissolved in 0.5% methylcellulose (MC) and 2% Tween 80. The solutions were prepared daily. Doses of 0.01, 0.03 and 0.1 mg/kg of AP-61 or vehicle were administered p.o. (injection volume was 2 ml/kg), immediately after T1. […]
A testing session comprised two trials, each with durations of 3 min. […] The times spent in exploring each object during T1 and T2 were recorded manually with a personal computer. […]
The measures were the times spent by rats in exploring each object during T1 and T2. […] From these exploration times the following variables were calculated: e1, e2 and d2 (Table 1). […]

Row | Compound | Tmax [1] [h] | relative recovery time (duration of anesthesia, vehicle set at 100%), mean (male Wistar rats [2]; AP61 0.03 mg/kg p.o.) [%] | relative recovery time (duration of anesthesia, vehicle set at 100%), mean (male Wistar rats [2]; AP61 0.1 mg/kg p.o.) [%] | relative recovery time (duration of anesthesia, vehicle set at 100%), mean (male Wistar rats [2]; AP61 3.0 mg/kg p.o.) [%] | effect on duration of xylazine/ketamine-induced anesthesia compared with vehicle (summary) (male Wistar rats [2]; AP-61 0.03-3.0 mg/kg p.o., all doses) | emetic properties / gastrointestinal toxicity (conclusion) (male Wistar rats [2]; AP-61, all doses tested, within the effective dose range) | d2, discrimination index between the new and familiar objects for T2 (male Wistar rats [3]; AP61 0.01 mg/kg p.o. immediately after T1) | d2, discrimination index between the new and familiar objects for T2 (male Wistar rats [3]; AP61 0.1 mg/kg p.o. immediately after T1) | effect on duration of the xylazine/ketamine-induced anesthesia (summary) (male Wistar rats [2]; oral rolipram, 2 mg/kg, 15 min after induction of anesthesia (so in the source))
1 | CCc1nc(C2CCC(C(C)(C)C)CC2)n2nc(-c3ccccc3)[nH]c(=O)c12 (stereo not drawn) [AP61, 7-(4-tert-butylcyclohexyl)-5-ethyl-2-phenylimidazo[5,1-f][1,2,4]triazin-4(3H)-one] | 5 | 97.16 | 107.16 | 108.37 | none of the doses led to a shortened duration | does not show any signs of gastrointestinal toxicity | 0.10 (0.09) | 0.01 (0.08) | –
2 | COc1ccc(C2CNC(=O)C2)cc1OC1CCCC1 (stereo not drawn) [rolipram, reference compound] | – | – | – | – | – | – | – | – | significant reduction
